Measurements taken from patent US9775881B2, “Methods of treating mesothelioma by administration of compounds comprising FGFR1 ECD” (Five Prime Therapeutics, Inc., priority 2013, dated 2017).

Legend:
Assay type in all cases: in vivo, mouse
HLF xenograft model = test: HLF xenograft model, FGFR1-ECD.339-Fc alone and with sorafenib; conditions: 24 days, FGFR1-ECD.339-Fc 15 mg/kg IP twice per week (p=0.0175), sorafenib 20 mg/kg oral five times per week (p=0.0020)
Protocol: Six week old female CB17 SCID mice were purchased from Charles River Laboratories (Wilmington, Mass.) and were acclimated for 1 week before the start of the study. […] The cells were cultured for three passages in complete growth medium to expand for implantation. HLF cells were cultured in Dulbecco's Modified Eagle Medium (DMEM) supplemented with 10% Fetal Bovine Serum (FBS) and Antibiotic-Antimycotic solution. Cells were grown at 37° C. in a humidified atmosphere with 5% CO2.
The cells were implanted subcutaneously over the right flank of the mice at 2.5×10^6 cells/100 μl/mouse. Mice were monitored twice weekly following cell implantation for tumor growth. […]
FGFR1-ECD.339-Fc or albumin as a negative control, was dosed at 15 mg/kg via intraperitoneal (IP) injection twice per week. […] Upon initiation of therapy, tumor sizes were measured in each mouse twice weekly. The length and width of each tumor was measured using calipers and the tumor size calculated according to the formula above. […]
Comparisons of tumor volume as a consequence of treatment with FGFR1-ECD.339-Fc and/or sorafenib were determined to be statistically significant if P<0.05. P-values were calculated using unpaired, two-tailed t-test analyses of the calculated tumor volumes on day 24 following initiation of treatment.

HepG2 xenograft model [1] = test: HepG2 xenograft model, FGFR1-ECD.339-Fc alone and with sorafenib
Protocol: FGFR1-ECD.339-Fc as a single agent, and in combination with sorafenib, was also tested in a HepG2 xenograft model.

SK-Hep-1 xenograft model [2] = test: SK-Hep-1 xenograft model, FGFR1-ECD.339-Fc alone and with sorafenib; conditions: 61 days, FGFR1-ECD.339-Fc 15 mg/kg IP twice per week (p=0.0036), sorafenib 20 mg/kg oral five times per week (p<0.0001)
Protocol: (§1) The cells were implanted subcutaneously over the right flank of the mice at 5×10^6 cells/100 μl/mouse.

SK-Hep-1 xenograft model [3] = test: SK-Hep-1 xenograft model, FGFR1-ECD.339-Fc alone and with pazopanib; conditions: 15 mg/kg IP twice per week, p=0.0076
Protocol: as §1

ACHN xenograft model = test: ACHN xenograft model, FGFR1-ECD.339-Fc alone and with pazopanib
Protocol: as §1

MSTO-211H xenograft = test: MSTO-211H mesothelioma tumor xenograft model, dose response; conditions: SCID mice, day 29
Protocol: Five to six week old female SCID mice were implanted subcutaneously with MSTO-211H cells (ATCC, Manassas, Va.) at 5×10^6 cells/mouse and tumor-bearing mice were randomized into 3 groups (n=10/group) when tumors reached ˜150-225 mm^3 in size. Mice were treated with FGFR1-ECD.339-Fc at two different concentrations (5.12 or 25.6 mg/kg) three times a week (t.i.w.) for 29 days. Tumor size and body weights were measured twice a week.

NCI-H226 xenograft = test: NCI-H226 mesothelioma tumor xenograft model, dose response; conditions: SCID mice, day 29
Protocol: Seven week old female SCID mice (Taconic, Hudson, N.Y.) were implanted subcutaneously with NCI-H226 cells (ATCC, Manassas, Va.) at 5×10^6 cells/mouse and tumor-bearing mice were randomized into 4 groups (n=8/group) when tumors reached ˜176-277 mm^3 in size. Mice were treated with FGFR1-ECD.339-Fc at three different concentrations (1.024, 5.12 or 25.6 mg/kg) three times a week (t.i.w.) for 29 days. Tumor size and body weights were measured twice a week.

Huh7 xenograft model = test: Huh7 xenograft model, FGFR1-ECD.339-Fc single agent; conditions: 15 mg/kg IP twice per week
Protocol: (§2) Six week old female CB17 SCID mice were purchased from Charles River Laboratories (Wilmington, Mass.) and were acclimated for 1 week before the start of the study. Human hepatocellular carcinoma (HCC) cell lines HepG2 and Hep3B were purchased from ATCC (Manassas, Va.) and Huh7 was purchased from JCRB (Japanese Collection of Research Bioresources). The cells were cultured for three passages in complete growth medium to expand for implantation. HepG2 and Hep3B cells were cultured in Dulbecco's Modified Eagle Medium (DMEM) supplemented with 10% Fetal Bovine Serum (FBS), 2 mM L-Glutamine, and Penicillin-Streptomycin antibiotic solution. […]
(§3) When the cultured cells reached 85-90% confluence, cells were harvested and resuspended in cold Ca^2+ and Mg^2+ free phosphate buffered saline (PBS) containing 50% Matrigel. […] Mice were monitored twice weekly following cell implantation for tumor growth.
(§4) FGFR1-ECD.339-Fc (FP-1039) or albumin as a negative control was dosed at 15 mg/kg via intraperitoneal injection twice per week. […] Upon initiation of therapy, tumor sizes were measured in each mouse twice weekly. The length and width of each tumor was measured using calipers and the tumor size calculated according to the formula Tumor size (mm^3)=[…]. […]
(§5) Comparisons of tumor volume as a consequence of treatment with FP-1039 were determined to be statistically significant if P<0.05. […]

Caki-2 xenograft model = test: Caki-2 xenograft model, FGFR1-ECD.339-Fc alone and with pazopanib; conditions: FGFR1-ECD.339-Fc 15 mg/kg IP twice per week, pazopanib 100 mg/kg oral daily
Protocol: as §1

Hep3B xenograft model = test: Hep3B xenograft model, FGFR1-ECD.339-Fc single agent; conditions: 15 mg/kg IP twice per week
Protocol: as §2, §3, §4, §5

[4] = tested on: NCI-H226 (mesothelioma) xenograft; test: Blood vessel density by MECA-32 IHC in NCI-H226 xenograft tumors; conditions: NCI-H226 tumors harvested day 30; 1.024, 5.12 or 25.6 mg/kg t.i.w. for 29 days
Protocol: Endothelial cell immunohistochemical (IHC) staining using a rat anti-mouse pan-endothelial cell antigen antibody (MECA-32; BD Biosciences, Franklin Lakes, N.J.) was performed on tumors from a NCI-H226 (mesothelioma) xenograft study. Tumor-bearing mice were treated with either vehicle (0.9% saline) or increasing doses of FGFR1-ECD.339-Fc (1.024, 5.12, or 25.6 mg/kg) three times a week (t.i.w.) for 29 days, as described above. Tumors were harvested on day 30. Quantification of MECA-32 IHC staining was analyzed by measuring the number of blood vessels/tissue area.

786-0 xenograft model = test: 786-0 xenograft model, FGFR1-ECD.339-Fc alone and with pazopanib; conditions: FGFR1-ECD.339-Fc 15 mg/kg IP twice per week, pazopanib 100 mg/kg oral daily
Protocol: as §1

HepG2 xenograft model [5] = test: HepG2 xenograft model, FGFR1-ECD.339-Fc single agent; conditions: 15 mg/kg IP twice per week
Protocol: as §2, §3, §4, §5

A498 xenograft model = test: A498 xenograft model, FGFR1-ECD.339-Fc alone and with pazopanib; conditions: FGFR1-ECD.339-Fc 15 mg/kg IP twice per week, pazopanib 100 mg/kg oral daily
Protocol: as §1

## CNC(=O)c1cc(Oc2ccc(NC(=O)Nc3ccc(Cl)c(C(F)(F)F)c3)cc2)ccn1 [sorafenib, reference compound]
HLF xenograft model
  response of xenograft model to single therapy (tumor volume): responded
HepG2 xenograft model [1]
  single agent effect on tumor growth: inhibits tumor growth
SK-Hep-1 xenograft model [2]
  response of xenograft model to single therapy (tumor volume): responded

## FGFR1-ECD.339-Fc: human FGFR1 extracellular domain ending at amino acid 339 fused to Fc; SEQ ID NO: 6 (mature form) or SEQ ID NO: 5 (with signal peptide)
SK-Hep-1 xenograft model [3]
  response of xenograft model to single therapy (tumor volume): responded
HLF xenograft model
  response of xenograft model to single therapy (tumor volume): responded
HepG2 xenograft model [1]
  single agent effect on tumor growth: not effective as a single agent
ACHN xenograft model; CB17 SCID mice, 15 mg/kg IP twice per week, day 63, p<0.0001
  tumor growth inhibition: 51%
ACHN xenograft model; FGFR1-ECD.339-Fc 15 mg/kg IP twice per week
  response of xenograft model to single therapy (tumor volume): responded
MSTO-211H xenograft; 5.12 mg/kg three times a week
  tumor growth inhibition (TGI): 20.3%
MSTO-211H xenograft; 25.6 mg/kg three times a week
  tumor growth inhibition (TGI): 50.1%
NCI-H226 xenograft; 1.024 mg/kg three times a week
  tumor growth inhibition (TGI): 16.2%
NCI-H226 xenograft; 5.12 mg/kg three times a week
  tumor growth inhibition (TGI): 56.8%
NCI-H226 xenograft; 25.6 mg/kg three times a week
  tumor growth inhibition (TGI): 77.8%
Huh7 xenograft model
  single agent efficacy (tumor volume): no single agent efficacy
Caki-2 xenograft model
  response of xenograft model to single therapy (tumor volume): little response
Hep3B xenograft model
  single agent efficacy (tumor volume): no single agent efficacy
SK-Hep-1 xenograft model [2]
  response of xenograft model to single therapy (tumor volume): responded
[4]
  blood vessel density (MECA-32 IHC), inner region: no significant differences
  blood vessel density (MECA-32 IHC), outer region: dose-dependent and a statistically-significant reduction
  blood vessel density (MECA-32 IHC), outer+inner region (whole tumor mass): dose-dependent and a statistically-significant reduction
786-0 xenograft model
  response of xenograft model to single therapy (tumor volume): did not respond
HepG2 xenograft model [5]
  single agent efficacy (tumor volume): no single agent efficacy
A498 xenograft model
  response of xenograft model to single therapy (tumor volume): little response
